Reference: patent publication EP0348967A2, “Synthetic lung surfactant preparation comprising lipids and polypeptides” (MERRELL PHARMACEUTICALS INC., priority 1988, dated 1990)

System: adult rat lung
Assay: adult rat lung model (pressure-volume curve, lung compliance)
Type: in vivo
Conditions: pressure-volume curves (Figs. 1 and 2), three ml of the preparations of Examples 1 and 2 tested
Description: The synthetic surfactant preparations were tested in the adult rat lung model (Ikegami, et al., (1979) Pediatr. Res. 13, 777-780). Reference I and Reference II, consisting of DPPC, alone and dog lung surfactant, respectively, were employed as reference standards. Three ml of the preparations from each of examples 1 and 2 were tested in an adult rat lung model. […] Results are illustrated in Figures 1 and 2.

SMILES: CCCCCCCCCCCCCCCC(=O)OC[C@H](COP(=O)([O-])OCC[N+](C)(C)C)OC(=O)CCCCCCCCCCCCCCC [Reference I, dipalmitoylphosphatidylcholine]
- compliance of the rat lung: no effect
